Laboratory results taken from ChEMBL document CHEMBL3044708, “The trifluoromethyl transformation synthesis, crystal structure and insecticidal activities of novel 2-pyrrolecarboxamide and 2-pyrrolecarboxlate” (2012).

What was measured:
Format in all cases: functional
Tetranychus cinnabarinus [1] = test: Acaricidal activity against Tetranychus cinnabarinus (carmine spider mite) larvae assessed as mortality at 200 mg/L
Tetranychus cinnabarinus [2] = test: Acaricidal activity against Tetranychus cinnabarinus (carmine spider mite) eggs assessed as mortality at 200 mg/L; details: Egg
Tetranychus cinnabarinus [3] = test: Acaricidal activity against Tetranychus cinnabarinus (carmine spider mite) assessed as mortality at 200 mg/L
Mythimna separata [4] = test: Insecticidal activity against Mythimna separata (Oriental armyworm) assessed as mortality at 200 mg/L
Mythimna separata [5] = test: Insecticidal activity against Mythimna separata (Oriental armyworm) assessed as mortality at 50 mg/L
Mythimna separata [6] = test: Insecticidal activity against Mythimna separata (Oriental armyworm) assessed as mortality at 100 mg/L
Mythimna separata [7] = test: Insecticidal activity against Mythimna separata (Oriental armyworm) assessed as mortality at 25 mg/L
Tetranychus cinnabarinus [8] = test: Acaricidal activity against Tetranychus cinnabarinus (carmine spider mite) eggs assessed as mortality at 100 mg/L; details: Egg
Tetranychus cinnabarinus [9] = test: Acaricidal activity against Tetranychus cinnabarinus (carmine spider mite) larvae assessed as mortality at 100 mg/L
Tetranychus cinnabarinus [10] = test: Acaricidal activity against Tetranychus cinnabarinus (carmine spider mite) assessed as mortality at 100 mg/L

SMILES | mortality at 200 µg/mL (Tetranychus cinnabarinus [1]) [%] | mortality at 200 µg/mL (Tetranychus cinnabarinus [2]) [%] | mortality at 200 µg/mL (Tetranychus cinnabarinus [3]) [%] | mortality at 200 µg/mL (Mythimna separata [4]) [%] | mortality at 50 µg/mL (Mythimna separata [5]) [%] | mortality at 100 µg/mL (Mythimna separata [6]) [%] | mortality at 25 µg/mL (Mythimna separata [7]) [%] | mortality at 100 µg/mL (Tetranychus cinnabarinus [8]) [%] | mortality at 100 µg/mL (Tetranychus cinnabarinus [9]) [%] | mortality at 100 µg/mL (Tetranychus cinnabarinus [10]) [%]
N#Cc1cc(C(=O)Nc2ccc(C(F)(F)F)cc2)[nH]c1-c1ccc(Br)cc1 | 0 | 0 | 0 | 0 |  |  |  |  |  | 
N#Cc1cc(C(=O)Nc2ccc(C(F)(F)F)cc2)[nH]c1-c1ccc(Cl)cc1 | 0 | 0 | 0 | 0 |  |  |  |  |  | 
N#Cc1c(-c2ccc(Cl)cc2)[nH]c(C(=O)Nc2ccc(C(F)(F)F)cc2)c1Br | 0 | 0 | 0 | 0 |  |  |  |  |  | 
N#Cc1c(-c2ccc(Cl)cc2)[nH]c(C(=O)NC2CCCCC2)c1Br | 0 | 0 | 0 | 80 |  |  |  |  |  | 
CCN(CC)C(=O)c1[nH]c(-c2ccc(Cl)cc2)c(C#N)c1Br | 0 | 0 | 0 | 0 |  |  |  |  |  | 
N#Cc1c(-c2ccc(Cl)cc2)[nH]c(C(=O)NCc2ccccc2)c1Br | 0 | 0 | 0 | 0 |  |  |  |  |  | 
COC(=O)c1[nH]c(-c2ccc(Cl)cc2)c(C#N)c1Br | 40 | 0 | 60 | 100 | 40 | 100 | 0 |  |  | 
CCOC(=O)c1[nH]c(-c2ccc(Cl)cc2)c(C#N)c1Br | 76 | 81 | 78 | 100 | 60 | 100 | 0 | 54 | 52 | 40
N#Cc1c(-c2ccc(Cl)cc2)[nH]c(C(=O)OCc2ccccc2)c1Br | 0 | 0 | 0 | 100 | 100 | 100 | 0 |  |  | 
N#Cc1c(-c2ccc(Cl)cc2)[nH]c(C(F)(F)F)c1Br | 100 | 100 | 100 | 100 | 100 | 100 | 100 | 100 | 100 | 100
CCOCn1c(-c2ccc(Cl)cc2)c(C#N)c(Br)c1C(F)(F)F [CHLORFENAPYR] | 100 | 100 | 100 | 100 | 100 | 100 | 100 | 100 | 100 | 100
